From PubChem BioAssay (NCI)
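The compound was tested at five concentrations on cells cultured in 96-well plates, with a 48-hour exposure period. At the GI50, growth is halved. TGI marks complete inhibition of growth.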

Tests used:
Test in all cases: inhibition of tumour cell growth, NCI panel, 48 h
786-0 renal = test system: 786-0 renal
A498 renal = test system: A498 renal
A549 NSCLC = test system: A549 NSCLC
ACHN renal = test system: ACHN renal
BT-549 breast = test system: BT-549 breast
CAKI-1 renal = test system: CAKI-1 renal
CCRF-CEM leukemia = test system: CCRF-CEM leukemia
COLO 205 colon = test system: COLO 205 colon
DU-145 prostate = test system: DU-145 prostate
EKVX NSCLC = test system: EKVX NSCLC
HCC-2998 colon = test system: HCC-2998 colon
HCT-116 colon = test system: HCT-116 colon
HCT-15 colon = test system: HCT-15 colon
HL-60(TB) leukemia = test system: HL-60(TB) leukemia
HOP-62 NSCLC = test system: HOP-62 NSCLC
HOP-92 NSCLC = test system: HOP-92 NSCLC
HS 578T breast = test system: HS 578T breast
HT29 colon = test system: HT29 colon
IGROV1 ovarian = test system: IGROV1 ovarian
K-562 leukemia = test system: K-562 leukemia
KM12 colon = test system: KM12 colon
LOX IMVI melanoma = test system: LOX IMVI melanoma
M14 melanoma = test system: M14 melanoma
MALME-3M melanoma = test system: MALME-3M melanoma
MCF7 breast = test system: MCF7 breast
MDA-MB-231 breast = test system: MDA-MB-231 breast
MDA-MB-435 = test system: MDA-MB-435
MOLT-4 leukemia = test system: MOLT-4 leukemia
NCI-H226 lung = test system: NCI-H226 lung
NCI-H23 lung = test system: NCI-H23 lung
NCI-H460 lung = test system: NCI-H460 lung
NCI-H522 lung = test system: NCI-H522 lung
NCI/ADR-RES ovarian = test system: NCI/ADR-RES ovarian
OVCAR-3 ovarian = test system: OVCAR-3 ovarian
OVCAR-4 ovarian = test system: OVCAR-4 ovarian
OVCAR-5 ovarian = test system: OVCAR-5 ovarian
OVCAR-8 ovarian = test system: OVCAR-8 ovarian
PC-3 prostate = test system: PC-3 prostate
RPMI-8226 leukemia = test system: RPMI-8226 leukemia
SF-268 CNS = test system: SF-268 CNS
SF-295 CNS = test system: SF-295 CNS
SF-539 CNS = test system: SF-539 CNS
SK-MEL-2 melanoma = test system: SK-MEL-2 melanoma
SK-MEL-28 melanoma = test system: SK-MEL-28 melanoma
SK-MEL-5 melanoma = test system: SK-MEL-5 melanoma
SK-OV-3 ovarian = test system: SK-OV-3 ovarian
SN12C renal = test system: SN12C renal
SNB-19 CNS = test system: SNB-19 CNS
SNB-75 CNS = test system: SNB-75 CNS
SR leukemia = test system: SR leukemia
SW-620 colon = test system: SW-620 colon
T-47D breast = test system: T-47D breast
TK-10 renal = test system: TK-10 renal
U251 CNS = test system: U251 CNS
UACC-257 melanoma = test system: UACC-257 melanoma
UACC-62 melanoma = test system: UACC-62 melanoma
UO-31 renal = test system: UO-31 renal

COc1ccc(C(=O)C[C@]2(O)C(=O)Nc3c(Cl)ccc(Cl)c32)cc1
GI50 (786-0 renal): 2610 nM | TGI (786-0 renal): > 100000 nM | GI50 (A498 renal): 295 nM | TGI (A498 renal): 1520 nM | GI50 (A549 NSCLC): 766 nM | TGI (A549 NSCLC): > 100000 nM | GI50 (ACHN renal): 774 nM | TGI (ACHN renal): > 100000 nM | GI50 (BT-549 breast): 590 nM | TGI (BT-549 breast): > 72900 nM | GI50 (CAKI-1 renal): 492 nM | TGI (CAKI-1 renal): > 100000 nM | GI50 (CCRF-CEM leukemia): 563 nM | TGI (CCRF-CEM leukemia): > 100000 nM | GI50 (COLO 205 colon): 488 nM | TGI (COLO 205 colon): 9780 nM | GI50 (DU-145 prostate): 1870 nM | TGI (DU-145 prostate): > 55700 nM | GI50 (EKVX NSCLC): 892 nM | TGI (EKVX NSCLC): > 100000 nM | GI50 (HCC-2998 colon): 1960 nM | TGI (HCC-2998 colon): > 100000 nM | GI50 (HCT-116 colon): 406 nM | TGI (HCT-116 colon): 24600 nM | GI50 (HCT-15 colon): 350 nM | TGI (HCT-15 colon): > 100000 nM | GI50 (HL-60(TB) leukemia): 343 nM | TGI (HL-60(TB) leukemia): 3060 nM | GI50 (HOP-62 NSCLC): 1060 nM | TGI (HOP-62 NSCLC): > 100000 nM | GI50 (HOP-92 NSCLC): 1410 nM | TGI (HOP-92 NSCLC): > 92300 nM | GI50 (HS 578T breast): 555 nM | TGI (HS 578T breast): > 100000 nM | GI50 (HT29 colon): 376 nM | GI50 (IGROV1 ovarian): 531 nM | TGI (IGROV1 ovarian): > 100000 nM | GI50 (K-562 leukemia): 258 nM | TGI (K-562 leukemia): > 100000 nM | GI50 (KM12 colon): 390 nM | TGI (KM12 colon): > 40100 nM | GI50 (LOX IMVI melanoma): 581 nM | TGI (LOX IMVI melanoma): > 100000 nM | GI50 (M14 melanoma): 321 nM | TGI (M14 melanoma): > 100000 nM | GI50 (MALME-3M melanoma): 503 nM | TGI (MALME-3M melanoma): > 100000 nM | GI50 (MCF7 breast): 383 nM | TGI (MCF7 breast): > 100000 nM | GI50 (MDA-MB-231 breast): 801 nM | TGI (MDA-MB-231 breast): > 100000 nM | GI50 (MDA-MB-435): 128 nM | TGI (MDA-MB-435): 396 nM | GI50 (MOLT-4 leukemia): 533 nM | TGI (MOLT-4 leukemia): > 100000 nM | GI50 (NCI-H226 lung): 3020 nM | TGI (NCI-H226 lung): > 100000 nM | GI50 (NCI-H23 lung): 1510 nM | TGI (NCI-H23 lung): > 100000 nM | GI50 (NCI-H460 lung): 389 nM | TGI (NCI-H460 lung): > 53500 nM | GI50 (NCI-H522 lung): 317 nM | GI50 (NCI/ADR-RES ovarian): 379 nM | GI50 (OVCAR-3 ovarian): 348 nM | TGI (OVCAR-3 ovarian): 7190 nM | GI50 (OVCAR-4 ovarian): 12000 nM | TGI (OVCAR-4 ovarian): > 100000 nM | GI50 (OVCAR-5 ovarian): 2430 nM | TGI (OVCAR-5 ovarian): > 100000 nM | GI50 (OVCAR-8 ovarian): 920 nM | TGI (OVCAR-8 ovarian): > 77300 nM | GI50 (PC-3 prostate): 1160 nM | TGI (PC-3 prostate): > 100000 nM | GI50 (RPMI-8226 leukemia): 589 nM | TGI (RPMI-8226 leukemia): 30000 nM | GI50 (SF-268 CNS): 1330 nM | TGI (SF-268 CNS): > 77800 nM | GI50 (SF-295 CNS): 516 nM | TGI (SF-295 CNS): > 100000 nM | GI50 (SF-539 CNS): 478 nM | TGI (SF-539 CNS): 3990 nM | GI50 (SK-MEL-2 melanoma): 627 nM | TGI (SK-MEL-2 melanoma): > 100000 nM | GI50 (SK-MEL-28 melanoma): 6540 nM | TGI (SK-MEL-28 melanoma): > 100000 nM | GI50 (SK-MEL-5 melanoma): 573 nM | TGI (SK-MEL-5 melanoma): 22300 nM | GI50 (SK-OV-3 ovarian): 1890 nM | TGI (SK-OV-3 ovarian): > 100000 nM | GI50 (SN12C renal): 870 nM | TGI (SN12C renal): > 100000 nM | GI50 (SNB-19 CNS): 1050 nM | TGI (SNB-19 CNS): > 100000 nM | GI50 (SNB-75 CNS): 199 nM | TGI (SNB-75 CNS): 972 nM | GI50 (SR leukemia): 243 nM | TGI (SR leukemia): > 100000 nM | GI50 (SW-620 colon): 379 nM | TGI (SW-620 colon): > 100000 nM | GI50 (T-47D breast): 498 nM | TGI (T-47D breast): > 100000 nM | GI50 (TK-10 renal): > 29400 nM | TGI (TK-10 renal): > 100000 nM | GI50 (U251 CNS): 508 nM | TGI (U251 CNS): > 100000 nM | GI50 (UACC-257 melanoma): 50300 nM | TGI (UACC-257 melanoma): > 100000 nM | GI50 (UACC-62 melanoma): 486 nM | TGI (UACC-62 melanoma): > 100000 nM | GI50 (UO-31 renal): 1470 nM | TGI (UO-31 renal): > 100000 nM
